Among the data in PubChem BioAssay AID216 (DTP/NCI, 2004) are T/C values, retold here.

Where “and” joins values, the source holds several entries; their conditions need not be identical. Equal values may be shown once. Toxic doses and inconclusive results are not listed.

The experiment has as its system BDF1 mice, P288 leukemia ip, survival T/C. The experiment can be described thus: NCI In Vivo Anticancer Drug Screen. Data for tumor model P288 Lymphocytic Leukemia (intraperitoneal) in B6D2F1 (BDF1) mice. The following applies: endpoint: survival time, mean or median, higher = longer survival. The procedure:
The antitumor activity of compounds was measured in mice bearing transplantable tumors. Survival or tumor size were measured and the results are expressed as the measurement made in the treated group (T) divided by the measurement made in the vehicle treated control group (C). The tumor model used in this assay is P288 Lymphocytic Leukemia (intraperitoneal) in B6D2F1 (BDF1) mice

Take `C[C@H](N)C(=O)N[C@@H]1[C@H]2C(=C(O)C[C@@H](O)[C@@H]2O)C(=O)O[C@@H]1C`: the T/C is 112 % of control (dose: 150.0 mg/kg/injection, schedule: Q01DX010 (ip), vehicle: saline); 156 % of control (dose: 300.0 mg/kg/injection, schedule: Q01DX010 (ip), vehicle: saline); 212 % of control (dose: 600.0 mg/kg/injection, schedule: Q01DX010 (ip), vehicle: saline).

For `O=CN(O)CC(=O)O`, the T/C (dose: 31.25 mg/kg/injection, schedule: Q01DX Z (ip), vehicle: carboxymethylcellulose (CMC)) was 110 % of control; the T/C (dose: 62.5 mg/kg/injection, schedule: Q01DX010 (ip), vehicle: saline) is 100 % of control; the T/C (dose: 62.5 mg/kg/injection, schedule: Q01DX Z (ip), vehicle: carboxymethylcellulose (CMC)) is 104 % of control; the T/C (dose: 125.0 mg/kg/injection, schedule: Q01DX010 (ip), vehicle: saline) was 100 % of control; the T/C (dose: 125.0 mg/kg/injection, schedule: Q01DX Z (ip), vehicle: carboxymethylcellulose (CMC)) is 100 % of control; the T/C (dose: 250.0 mg/kg/injection, schedule: Q01DX010 (ip), vehicle: saline) was 100 % of control. The T/C was 110 % of control (dose: 250.0 mg/kg/injection, schedule: Q01DX Z (ip), vehicle: carboxymethylcellulose (CMC)); 88 % of control (dose: 500.0 mg/kg/injection, schedule: Q01DX010 (ip), vehicle: saline); 106 % of control and 115 % of control (dose: 500.0 mg/kg/injection, schedule: Q01DX Z (ip), vehicle: carboxymethylcellulose (CMC)); 100 % of control (dose: 1000.0 mg/kg/injection, schedule: Q01DX Z (ip), vehicle: carboxymethylcellulose (CMC)).

Consider `CN(C)c1ccc(/C=C\c2ccnc3ccccc23)cc1`, for which the T/C is, setting by setting: (dose: 6.25 mg/kg/injection, schedule: Q01DX Z (ip), vehicle: water) 98 % of control; (dose: 12.0 mg/kg/injection, schedule: Q01DX010 (ip), vehicle: saline) 88 % of control; (dose: 12.5 mg/kg/injection, schedule: Q01DX Z (ip), vehicle: water) 98 % of control; (dose: 18.0 mg/kg/injection, schedule: Q01DX010 (ip), vehicle: saline) 88 % of control; (dose: 25.0 mg/kg/injection, schedule: Q01DX Z (ip), vehicle: water) 100 % of control; (dose: 27.0 mg/kg/injection, schedule: Q01DX010 (ip), vehicle: saline) 94 % of control. The T/C was 88 % of control (dose: 40.0 mg/kg/injection, schedule: Q01DX010 (ip), vehicle: saline); 105 % of control (dose: 50.0 mg/kg/injection, schedule: Q01DX Z (ip), vehicle: water); 108 % of control (dose: 100.0 mg/kg/injection, schedule: Q01DX Z (ip), vehicle: water); 90 % of control (dose: 200.0 mg/kg/injection, schedule: Q01DX Z (ip), vehicle: water).

Turning to `NC(Cc1ccc(N(CCCl)CCCl)cc1)C(=O)O` (stereo not given), the T/C reads like this: (dose: 0.31 mg/kg/injection, schedule: Q01DX Z (ip), vehicle: carboxymethylcellulose (CMC)) 90 % of control; (dose: 0.63 mg/kg/injection, schedule: Q01DX Z (ip), vehicle: carboxymethylcellulose (CMC)) 111 % of control; (dose: 1.25 mg/kg/injection, schedule: Q01DX010 (ip), vehicle: saline) 112 % of control; (dose: 1.25 mg/kg/injection, schedule: Q01DX Z (ip), vehicle: carboxymethylcellulose (CMC)) 110 % of control; (dose: 2.0 mg/kg/injection, schedule: Q01DX010 (ip), vehicle: saline) 172 % of control; (dose: 2.5 mg/kg/injection, schedule: Q01DX Z (ip), vehicle: carboxymethylcellulose (CMC)) 105 % of control. The T/C (dose: 4.0 mg/kg/injection, schedule: Q01DX010 (ip), vehicle: saline) was 188 % of control; the T/C (dose: 5.0 mg/kg/injection, schedule: Q01DX010 (ip), vehicle: saline) was 150 % of control; the T/C (dose: 5.0 mg/kg/injection, schedule: Q01DX Z (ip), vehicle: carboxymethylcellulose (CMC)) was 97 % of control; the T/C (dose: 10.0 mg/kg/injection, schedule: Q01DX010 (ip), vehicle: saline) was 187 % of control; the T/C (dose: 10.0 mg/kg/injection, schedule: Q01DX Z (ip), vehicle: carboxymethylcellulose (CMC)) was 97 % of control; the T/C (dose: 16.0 mg/kg/injection, schedule: Q01DX010 (ip), vehicle: saline) is 88 % of control.
